Measurements taken from patent US20030176356A1, “Endothelin antagonists and endothelin-converting enzyme inhibitors for the treatment of glaucoma” (University of North Texas Health Science Center, priority 2001, published 2003).
Marks after values point to notes of the source that are not given here. No end group written: not given here. *: point of attachment. dPhe(β-Ph) = β-phenyl D-Phe (N-terminal, N-acetylated), CC(=O)N[C@@H](C(=O)*)C(c1ccccc1)c1ccccc1

Assays:
[1] = tested on: human non-pigmented ciliary epithelial (HNPE) cells; test: Nitric oxide release from HNPE cells (nitrite, Griess colorimetric assay); format: cell-based; conditions: pre-treated with PD-142893 (1 μM) 30 minutes, then 100 nM ET-1, 24 hours; vs ET-1 alone
Procedure: The effect of endothelin-1 (ET-1) and PD-142893, an ETA/B receptor antagonist, on nitric oxide (“NO”) release from human non-pigmented ciliary epithelial (HNPE) cells are illustrated in FIG. 6. The NO released into the culture media from HNPE cells grown in 24-well plates and treated with ET-1 (100 nM) for 24 hours was converted to nitrites. The total amount of nitrites was measured using the Griess colorimetric assay. HNPE cells were pre-treated with PD-142893 (1 μM) for 30 minutes and then 100 nM ET-1 was also added and incubated for 24 hours. The values in FIG. 6 represent the mean±SEM of a ratio between the nitrite produced under experimental conditions divided by the nitrite produced in control cells, which corresponded to 14.4±1.8 μM and controls were expressed as 100% (n=3). Statistical significance of the nitrite released from ET-1 (100 nM) treatment versus the control are denoted with an asterisk (“*”). Statistical significance of the nitrite released from PD-142893+ET-1 (100 nM) treatment versus that of ET-1 (100 nM) are denoted as a double asterisk (“**”) The statistical differenced were determined by one-way ANOVA and Student-Newman-Keuls multiple comparison test (p<0.05). Thus, addition of ET-1 increased the nitrite levels nearly 2-fold when compared to control cells or cells treated with PD-142893.

[2] = molecular target: T1, ECE-1 (Homo sapiens, UniProt P42892); test: ECE-1 activity in plasma membrane fraction of HNPE cells (conversion of 125I Big ET-1 to 125I ET-1); format: biochemical
T1 construct: The endogenous ECE from the plasma membrane fraction converted the; endogenous in cells; host or cells: HNPE cells (human non-pigmented ciliary epithelial), plasma membrane fraction
T1 sequence (P42892 1-770): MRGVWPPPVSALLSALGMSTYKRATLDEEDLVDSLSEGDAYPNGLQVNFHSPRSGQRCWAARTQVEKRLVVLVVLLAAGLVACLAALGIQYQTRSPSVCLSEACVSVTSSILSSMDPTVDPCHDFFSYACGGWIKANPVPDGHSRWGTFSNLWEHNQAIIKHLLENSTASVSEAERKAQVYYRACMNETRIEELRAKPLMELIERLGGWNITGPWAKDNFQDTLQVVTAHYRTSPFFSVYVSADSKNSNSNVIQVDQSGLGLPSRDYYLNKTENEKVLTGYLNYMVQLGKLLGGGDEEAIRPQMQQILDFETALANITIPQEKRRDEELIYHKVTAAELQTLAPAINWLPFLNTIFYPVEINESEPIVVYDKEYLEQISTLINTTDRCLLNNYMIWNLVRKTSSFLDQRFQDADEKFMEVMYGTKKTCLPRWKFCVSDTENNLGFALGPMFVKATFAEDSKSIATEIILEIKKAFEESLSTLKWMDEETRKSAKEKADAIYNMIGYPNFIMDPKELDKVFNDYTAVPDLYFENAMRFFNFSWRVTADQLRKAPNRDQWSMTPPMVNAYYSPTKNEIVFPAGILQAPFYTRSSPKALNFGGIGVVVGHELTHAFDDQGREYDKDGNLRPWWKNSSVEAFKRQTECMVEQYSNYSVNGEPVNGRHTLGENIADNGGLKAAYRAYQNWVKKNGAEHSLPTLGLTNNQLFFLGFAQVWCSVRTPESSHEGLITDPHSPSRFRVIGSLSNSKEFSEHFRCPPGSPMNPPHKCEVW
Procedure: (§1) Fractions were incubated at 37° C. and collected at various time periods ranging from 5 minutes to 24 hours. […] Values represent the mean±SEM for data obtained from replicate samples. Statistical significance of mean [ET-1] among different time periods in HNPE cells as determined by one-way ANOVA and Student-Newman-Keuls multiple comparison test at p<0.05 (5 min n=3; 10 min n=6; 180 min n=9; 24 hrs n=4). Values that were statistically different are identified with an asterisk (“*”). Statistical significance of mean [ET−1] among different time periods in rat lung tissue as determined by one-way ANOVA and Student-Newman-Keuls multiple comparison test at p<0.05 (n=6 for 180 minutes; n=4 for other time periods) and denoted with a cross (“†”). It should be noted that the regression analysis (“r^2”) and line equation (“y=m×+b”) for percent ECE-1 activity were calculated based on a line graph with equal scale on the X axis ranging from 0-1500 minutes.
(§2) Briefly, plasma membrane fractions (e.g. 20 μg total protein) of HNPE cells and rat lung tissue were incubated with 80 fmoles/mg protein of ^125I Big ET-1 for 180 minutes. […] However, each of the samples was divided into two groups: a control; and the CGS 26303 treated group. […] The data were analyzed statistically by one-way ANOVA, and those values that show a significant difference (p<0.05 level) are identified with an asterisk (*).

[3] = molecular target: T2, ECE-1 (Rattus norvegicus, UniProt P42893); test: ECE-1 activity in plasma membrane fraction of rat lung tissue (conversion of 125I Big ET-1 to 125I ET-1); format: biochemical
T2 construct: The endogenous ECE from the plasma membrane fraction converted the; from tissue; host or cells: rat lung tissue, plasma membrane fraction
T2 sequence (P42893 1-762): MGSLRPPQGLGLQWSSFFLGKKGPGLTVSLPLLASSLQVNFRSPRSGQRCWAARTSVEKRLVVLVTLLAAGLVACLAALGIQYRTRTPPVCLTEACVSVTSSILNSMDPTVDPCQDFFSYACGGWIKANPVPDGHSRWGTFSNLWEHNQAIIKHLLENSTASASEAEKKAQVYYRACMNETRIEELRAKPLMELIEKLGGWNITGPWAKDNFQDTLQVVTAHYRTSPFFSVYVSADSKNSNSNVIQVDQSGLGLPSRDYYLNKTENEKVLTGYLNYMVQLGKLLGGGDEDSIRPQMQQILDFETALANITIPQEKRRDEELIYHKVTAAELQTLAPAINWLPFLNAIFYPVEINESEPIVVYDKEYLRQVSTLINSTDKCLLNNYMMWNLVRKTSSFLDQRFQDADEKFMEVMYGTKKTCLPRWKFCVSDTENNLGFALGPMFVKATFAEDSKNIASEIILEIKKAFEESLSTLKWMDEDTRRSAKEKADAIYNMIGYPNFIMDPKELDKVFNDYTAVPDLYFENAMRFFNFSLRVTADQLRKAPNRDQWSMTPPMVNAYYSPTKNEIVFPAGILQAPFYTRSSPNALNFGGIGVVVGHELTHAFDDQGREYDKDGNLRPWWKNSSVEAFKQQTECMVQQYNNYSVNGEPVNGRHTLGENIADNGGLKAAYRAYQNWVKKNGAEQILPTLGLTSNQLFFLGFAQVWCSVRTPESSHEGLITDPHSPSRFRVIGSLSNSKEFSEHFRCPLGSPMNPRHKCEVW
Procedure: as §1, §2

[4] = tested on: rat optic nerve; test: Anterograde axonal transport in rat optic nerve after intravitreal injection (35S-methionine pulse label); format: in vivo; conditions: 28 hour ISI, 2 mmol dose, p>0.999, ANOVA, N=7
Source text: Newly synthesized proteins undergoing anterograde axonal transport in the optic nerve were pulse-labeled in either the presence or absence of endothelin as modified from previously published methods (van Biesen et al., 1995). Modifications to previously published methods were minimal and involved the replacement of a distilled water vehicle for resuspension of radiolabeled precursors with either HEPES buffered ET-1 or HEPES vehicle buffer alone. ^35S-Methionine (Easytag EXPRESS PROTEIN LABELING MIX, Dupont-NEN Life Sciences, Boston, Mass.) was lyophilized and resuspended in either vehicle alone (10 mM HEPES, pH 7.4, Sigma Chemical Co., St Louis, Mo.) or in vehicle containing 500 μM ET-1 (Bachem, Belmont, Calif.). Rats were anesthetized by Metofane inhalation, and 0.8 mCi (4 μl) of radiolabel in vehicle either plus or minus ET-1 (final dose 2 mmols), was injected into the vitreous of the left eye using a 30 gauge needle attached to a Hamilton syringe (microliter #710, 22s gauge, Hamilton Co., Reno, Nev.) by polyethylene tubing (PE-20, Clay Adams Brand, Becton Dickson and Co., Sparks, Md.) (van Biesen et al., 1995). In one experiment, ET-3 was substituted for ET-1, using the same methods (2 mmol dose, 28 hour ISI, N=7 for controls, N=7 for experimentals). […] One minute after injection, all retinas appeared normal in color. (Based upon these initial observations, further observations of the retinas were not performed). Information on the dose-related effect(s) of intravitreal ET-1 in this species (i.e. rat) were unavailable, and physiological/pathological concentrations of endothelin in the optic nerve head's microenvironment are generally unknown. Therefore, dose selection was made on the basis of a small pilot study, using these methods and measuring the total pulse-labeled protein axonally transported into the rat optic nerve. (An N of 3 rats in every group was used only for the pilot study, 4 hour ISI, data not shown). […] However, significant effects on axonal transport (4 hour ISI) were only seen in the pilot study for the 2 mmol dose. […] Possible effect(s) on non-assayed ocular tissues were not considered in dose selection, as data on these were unavailable for either acute or chronic intravitreal ET-1 administration, in rats.
This technique was employed to determine if endothelin-1 also affected the axonal transport in the optic nerve of rats, which is severely compromised in glaucoma. Harvest and preparation of pulse-labeled optic nerves in animals, wherein animals were anesthetized with metofane at specified times after injection and sacrificed by decapitation. Injection-sacrifice intervals were selected based upon the published characterizations of anterograde axonal transport in rat optic nerve for specific marker proteins associated with specific classes of axonally transported materials (Table 4) (Elluru et al., 1995; Garner and Lasek, 1981; Garner and Lasek, 1982; Jahn et al., 1985). Seven vehicle-treated animals and seven endothelin-treated animals were sacrificed at each of the specified times (4, 24, 28, 32, 36 hours and 4, 21 days). Optic nerves were removed, flash frozen with crushed dry ice, and sectioned frozen. Nerves were sectioned to aid complete homogenization, and to provide additional data for future studies. The frozen sections (2 mm in length) were numbered as segments 1-4 (from proximal to distal), and glass-on glass homogenized in 100 μlof BUST sample buffer (2% β-mercaptoethanol, 8M urea, 1% SDS, 0.1M Tris, 0.02% phenol red, pH 7.4). A 25% aliquot of each homogenized segment was counted in a liquid scintillation counter, and counts were corrected for decay, quench, and counting efficiency.

Compound: N-Acetyl-b-phenyl D-Phy-Leu-Asp-Ile-Ile-Trp ({Ac-dPhe(β-Ph)}-LDIIW) [PD-142893, ETA/B receptor antagonist]
- nitrite production, PD-142893 + ET-1 [1]: decrease in nitrite production

Compound: O=P(O)(O)CN[C@@H](Cc1ccc(-c2ccccc2)cc1)c1nn[nH]n1 [CGS 26303]
- fmoles 125I ET-1 produced/mg protein/180 min ([2]; HNPE cells plasma membrane fraction, 100 μM CGS-26303, 180 min, 37° C., control 27 ± 1): 12 ± 2* fmoles ^125I ET-1 produced/mg protein/180 min
- decrease in 125I ET-1 production ([2]; HNPE plasma membrane fraction, 180 minute time period, vs control): 55%
- decrease in 125I ET-1 ([3]; rat lung plasma membrane fraction, 180 minutes, vs control): 56%
- fmoles 125I ET-1 produced/mg protein/180 min ([3]; rat lung tissue plasma membrane fraction, 100 μM CGS-26303, 180 min, 37° C., control 25 ± 1): 11 ± 4* fmoles ^125I ET-1 produced/mg protein/180 min

Compound: ET-3: ETB-receptor-selective agonist, endothelin isopeptide (CTCFTYKDKECVYYCHLDIIW; ends and bridges not checked; cysteine pairing not given here; UniProt P14138 97-117, looked up)
- effect of intravitreal ET-3 on anterograde axonal transport compared with ET-1 [4]: no significant difference between ET-1 and ET-3
